# Patent US20230085307A1, “PYRIDAZINONE COMPOUND AND HERBICIDE” (NISSAN CHEMICAL CORPORATION, priority 2019, published 2023)
# Legend:
# Chinese sprangletop = test: Test Example 3: herbicidal effect by foliage application, Wagner pot (Table 18, symbol D); assay type: in vivo, chinese sprangletop (Leptochloa chinensis)
# Procedure, shortened: (§1)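 Plants were sown in alluvial soil held under 0.1–0.5 cm standing water and grown 14 days in a greenhouse at 25–30 °C. An emulsifiable formulation, water-diluted to the set dose, was then sprayed onto the foliage, and effects were scored three weeks later using previously defined criteria.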
# velvetleaf [1] = test: Test Example 5: herbicidal effect by foliage application, plastic box (Table 20, symbol M); assay type: in vivo, velvetleaf (Abutilon theophrasti); details: foliage application, three weeks after application
# Procedure, shortened: (§2)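 Plants were sown into sterilized diluvial soil under about 1.5 cm cover and kept in a greenhouse at 25° C. to 30° C. Fourteen days on, foliage received an even spray of the diluted emulsion. Herbicidal or crop effect was judged three weeks afterwards.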
# blackgrass [2] = test: Test Example 5: herbicidal effect by foliage application, plastic box (Table 20, symbol J); assay type: in vivo, blackgrass (Alopecurus myosuroides); details: foliage application, three weeks after application
# Procedure, shortened: as §2
# windgrass [3] = test: Test Example 5: herbicidal effect by foliage application, plastic box (Table 20, symbol L); assay type: in vivo, windgrass (Apera spica-venti); details: foliage application, three weeks after application
# Procedure, shortened: as §2
# persian speedwell [4] = test: Test Example 4: herbicidal effect by soil treatment (Table 19, symbol R); assay type: in vivo, Persian speedwell (Veronica persica)
# Procedure, shortened: (§3)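 Pre-emergence style soil spray: seeds under ~1.5 cm sterilized diluvial soil received a uniform coat of emulsion diluted to the predetermined herbicide amount. Greenhouse 25–30° C; readout at week three on previously defined criteria.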
# false cleavers [5] = test: Test Example 5: herbicidal effect by foliage application, plastic box (Table 20, symbol Q); assay type: in vivo, false cleavers (Galium spurium); details: foliage application, three weeks after application
# Procedure, shortened: as §2
# green foxtail [6] = test: Test Example 5: herbicidal effect by foliage application, plastic box (Table 20, symbol G); assay type: in vivo, green foxtail (Setaria viridis); details: foliage application, three weeks after application
# Procedure, shortened: as §2
# windgrass [7] = test: Test Example 4: herbicidal effect by soil treatment (Table 19, symbol L); assay type: in vivo, windgrass (Apera spica-venti)
# Procedure, shortened: as §3
# barnyard grass [8] = test: Test Example 4: herbicidal effect by soil treatment (Table 19, symbol H); assay type: in vivo, barnyard grass (Echinochloa crus-galli)
# Procedure, shortened: as §3
# chickweed [9] = test: Test Example 4: herbicidal effect by soil treatment (Table 19, symbol P); assay type: in vivo, common chickweed (Stellaria media)
# Procedure, shortened: as §3
# southern crabgrass [10] = test: Test Example 5: herbicidal effect by foliage application, plastic box (Table 20, symbol F); assay type: in vivo, southern crabgrass (Digitaria ciliaris); details: foliage application, three weeks after application
# Procedure, shortened: as §2
# false cleavers [11] = test: Test Example 4: herbicidal effect by soil treatment (Table 19, symbol Q); assay type: in vivo, false cleavers (Galium spurium)
# Procedure, shortened: as §3
# blackgrass [12] = test: Test Example 4: herbicidal effect by soil treatment (Table 19, symbol J); assay type: in vivo, blackgrass (Alopecurus myosuroides)
# Procedure, shortened: as §3
# redroot pigweed [13] = test: Test Example 4: herbicidal effect by soil treatment (Table 19, symbol N); assay type: in vivo, redroot pigweed (Amaranthus retroflexus)
# Procedure, shortened: as §3
# rice flat sedge = test: Test Example 3: herbicidal effect by foliage application, Wagner pot (Table 18, symbol E); assay type: in vivo, rice flat sedge (Cyperus iria)
# Procedure, shortened: as §1
# wild oat [14] = test: Test Example 5: herbicidal effect by foliage application, plastic box (Table 20, symbol I); assay type: in vivo, wild oat (Avena fatua); details: foliage application, three weeks after application
# Procedure, shortened: as §2
# southern crabgrass [15] = test: Test Example 4: herbicidal effect by soil treatment (Table 19, symbol F); assay type: in vivo, southern crabgrass (Digitaria ciliaris)
# Procedure, shortened: as §3
# lambsquarters [16] = test: Test Example 4: herbicidal effect by soil treatment (Table 19, symbol O); assay type: in vivo, lambsquarters (Chenopodium album)
# Procedure, shortened: as §3
# Italian ryegrass [17] = test: Test Example 4: herbicidal effect by soil treatment (Table 19, symbol K); assay type: in vivo, Italian ryegrass (Lolium multiflorum)
# Procedure, shortened: as §3
# barnyard grass [18] = test: Test Example 3: herbicidal effect by foliage application, Wagner pot (Table 18, symbol H); assay type: in vivo, barnyard grass (Echinochloa crus-galli)
# Procedure, shortened: as §1
# chickweed [19] = test: Test Example 5: herbicidal effect by foliage application, plastic box (Table 20, symbol P); assay type: in vivo, common chickweed (Stellaria media); details: foliage application, three weeks after application
# Procedure, shortened: as §2
# barnyard grass [20] = test: Test Example 5: herbicidal effect by foliage application, plastic box (Table 20, symbol H); assay type: in vivo, barnyard grass (Echinochloa crus-galli); details: foliage application, three weeks after application
# Procedure, shortened: as §2
# Italian ryegrass [21] = test: Test Example 5: herbicidal effect by foliage application, plastic box (Table 20, symbol K); assay type: in vivo, Italian ryegrass (Lolium multiflorum); details: foliage application, three weeks after application
# Procedure, shortened: as §2
# redroot pigweed [22] = test: Test Example 5: herbicidal effect by foliage application, plastic box (Table 20, symbol N); assay type: in vivo, redroot pigweed (Amaranthus retroflexus); details: foliage application, three weeks after application
# Procedure, shortened: as §2
# persian speedwell [23] = test: Test Example 5: herbicidal effect by foliage application, plastic box (Table 20, symbol R); assay type: in vivo, Persian speedwell (Veronica persica); details: foliage application, three weeks after application
# Procedure, shortened: as §2
# velvetleaf [24] = test: Test Example 4: herbicidal effect by soil treatment (Table 19, symbol M); assay type: in vivo, velvetleaf (Abutilon theophrasti)
# Procedure, shortened: as §3
# green foxtail [25] = test: Test Example 4: herbicidal effect by soil treatment (Table 19, symbol G); assay type: in vivo, green foxtail (Setaria viridis)
# Procedure, shortened: as §3
# lambsquarters [26] = test: Test Example 5: herbicidal effect by foliage application, plastic box (Table 20, symbol O); assay type: in vivo, lambsquarters (Chenopodium album); details: foliage application, three weeks after application
# Procedure, shortened: as §2
# wild oat [27] = test: Test Example 4: herbicidal effect by soil treatment (Table 19, symbol I); assay type: in vivo, wild oat (Avena fatua)
# Procedure, shortened: as §3
# [28] = amount of applied herbicide 144 g/ha
# [29] = amount of applied herbicide 320 g/ha
smiles,measurement,setting,value
Cc1nn(C)c(=O)c(-c2c(-c3ccc(C(F)(F)F)nc3)sc3ccccc23)c1O [1-078],"herbicidal effect on D (Chinese sprangletop), rating 0-5",Chinese sprangletop; 144 g/ha,0 (Herbicidal rate of 5% or less (almost no effect))
same,"herbicidal effect grade, M: velvetleaf",velvetleaf [1]; 144 g/ha,5 (Herbicidal rate of 90% or more (almost completely withered))
same,"herbicidal effect grade, J: blackgrass",blackgrass [2]; 144 g/ha,0 (Herbicidal rate of 5% or less (almost no effect))
same,"herbicidal effect grade, L: windgrass",windgrass [3]; 144 g/ha,0 (Herbicidal rate of 5% or less (almost no effect))
same,"herbicidal effect rating, R: persian speedwell",persian speedwell [4]; [28],2 (Herbicidal rate of 20% or more and less than 40%)
same,"herbicidal effect grade, Q: false cleavers",false cleavers [5]; 144 g/ha,1 (Herbicidal rate of 5% or more and less than 20%)
same,"herbicidal effect grade, G: green foxtail",green foxtail [6]; 144 g/ha,0 (Herbicidal rate of 5% or less (almost no effect))
same,"herbicidal effect rating, L: windgrass",windgrass [7]; [28],0 (Herbicidal rate of 5% or less (almost no effect))
same,"herbicidal effect rating, H: barnyard grass",barnyard grass [8]; [28],2 (Herbicidal rate of 20% or more and less than 40%)
same,"herbicidal effect rating, P: chickweed",chickweed [9]; [28],0 (Herbicidal rate of 5% or less (almost no effect))
same,"herbicidal effect grade, F: southern crabgrass",southern crabgrass [10]; 144 g/ha,0 (Herbicidal rate of 5% or less (almost no effect))
same,"herbicidal effect rating, Q: false cleavers",false cleavers [11]; [28],0 (Herbicidal rate of 5% or less (almost no effect))
same,"herbicidal effect rating, J: blackgrass",blackgrass [12]; [28],0 (Herbicidal rate of 5% or less (almost no effect))
same,"herbicidal effect rating, N: redroot pigweed",redroot pigweed [13]; [28],0 (Herbicidal rate of 5% or less (almost no effect))
same,"herbicidal effect on E (rice flat sedge), rating 0-5",rice flat sedge; 144 g/ha,3 (Herbicidal rate of 40% or more and less than 70%)
same,"herbicidal effect grade, I: wild oat",wild oat [14]; 144 g/ha,0 (Herbicidal rate of 5% or less (almost no effect))
same,"herbicidal effect rating, F: southern crabgrass",southern crabgrass [15]; [28],0 (Herbicidal rate of 5% or less (almost no effect))
same,"herbicidal effect rating, O: lambsquarters",lambsquarters [16]; [28],3 (Herbicidal rate of 40% or more and less than 70%)
same,"herbicidal effect rating, K: Italian ryegrass",Italian ryegrass [17]; [28],0 (Herbicidal rate of 5% or less (almost no effect))
same,"herbicidal effect on H (barnyard grass), rating 0-5",barnyard grass [18]; 144 g/ha,1 (Herbicidal rate of 5% or more and less than 20%)
same,"herbicidal effect grade, P: chickweed",chickweed [19]; 144 g/ha,5 (Herbicidal rate of 90% or more (almost completely withered))
same,"herbicidal effect grade, H: barnyard grass",barnyard grass [20]; 144 g/ha,0 (Herbicidal rate of 5% or less (almost no effect))
same,"herbicidal effect grade, K: Italian ryegrass",Italian ryegrass [21]; 144 g/ha,0 (Herbicidal rate of 5% or less (almost no effect))
same,"herbicidal effect grade, N: redroot pigweed",redroot pigweed [22]; 144 g/ha,0 (Herbicidal rate of 5% or less (almost no effect))
same,"herbicidal effect grade, R: persian speedwell",persian speedwell [23]; 144 g/ha,5 (Herbicidal rate of 90% or more (almost completely withered))
same,"herbicidal effect rating, M: velvetleaf",velvetleaf [24]; [28],0 (Herbicidal rate of 5% or less (almost no effect))
same,"herbicidal effect rating, G: green foxtail",green foxtail [25]; [28],0 (Herbicidal rate of 5% or less (almost no effect))
same,"herbicidal effect grade, O: lambsquarters",lambsquarters [26]; 144 g/ha,2 (Herbicidal rate of 20% or more and less than 40%)
same,"herbicidal effect rating, I: wild oat",wild oat [27]; [28],0 (Herbicidal rate of 5% or less (almost no effect))
Cc1nn(C)c(=O)c(-c2c(-c3ccsc3)sc3ccccc23)c1O [1-083],"herbicidal effect on D (Chinese sprangletop), rating 0-5",Chinese sprangletop; 320 g/ha,3 (Herbicidal rate of 40% or more and less than 70%)
same,"herbicidal effect grade, M: velvetleaf",velvetleaf [1]; 320 g/ha,5 (Herbicidal rate of 90% or more (almost completely withered))
same,"herbicidal effect grade, J: blackgrass",blackgrass [2]; 320 g/ha,1 (Herbicidal rate of 5% or more and less than 20%)
same,"herbicidal effect grade, L: windgrass",windgrass [3]; 320 g/ha,3 (Herbicidal rate of 40% or more and less than 70%)
same,"herbicidal effect rating, R: persian speedwell",persian speedwell [4]; [29],5 (Herbicidal rate of 90% or more (almost completely withered))
same,"herbicidal effect grade, Q: false cleavers",false cleavers [5]; 320 g/ha,4 (Herbicidal rate of 70% or more and less than 90%)
same,"herbicidal effect grade, G: green foxtail",green foxtail [6]; 320 g/ha,0 (Herbicidal rate of 5% or less (almost no effect))
same,"herbicidal effect rating, L: windgrass",windgrass [7]; [29],0 (Herbicidal rate of 5% or less (almost no effect))
same,"herbicidal effect rating, H: barnyard grass",barnyard grass [8]; [29],0 (Herbicidal rate of 5% or less (almost no effect))
same,"herbicidal effect rating, P: chickweed",chickweed [9]; [29],5 (Herbicidal rate of 90% or more (almost completely withered))
same,"herbicidal effect grade, F: southern crabgrass",southern crabgrass [10]; 320 g/ha,2 (Herbicidal rate of 20% or more and less than 40%)
same,"herbicidal effect rating, Q: false cleavers",false cleavers [11]; [29],3 (Herbicidal rate of 40% or more and less than 70%)
same,"herbicidal effect rating, J: blackgrass",blackgrass [12]; [29],0 (Herbicidal rate of 5% or less (almost no effect))
same,"herbicidal effect rating, N: redroot pigweed",redroot pigweed [13]; [29],0 (Herbicidal rate of 5% or less (almost no effect))
same,"herbicidal effect on E (rice flat sedge), rating 0-5",rice flat sedge; 320 g/ha,4 (Herbicidal rate of 70% or more and less than 90%)
same,"herbicidal effect grade, I: wild oat",wild oat [14]; 320 g/ha,3 (Herbicidal rate of 40% or more and less than 70%)
same,"herbicidal effect rating, F: southern crabgrass",southern crabgrass [15]; [29],0 (Herbicidal rate of 5% or less (almost no effect))
same,"herbicidal effect rating, O: lambsquarters",lambsquarters [16]; [29],0 (Herbicidal rate of 5% or less (almost no effect))
same,"herbicidal effect rating, K: Italian ryegrass",Italian ryegrass [17]; [29],3 (Herbicidal rate of 40% or more and less than 70%)
same,"herbicidal effect on H (barnyard grass), rating 0-5",barnyard grass [18]; 320 g/ha,3 (Herbicidal rate of 40% or more and less than 70%)
same,"herbicidal effect grade, P: chickweed",chickweed [19]; 320 g/ha,5 (Herbicidal rate of 90% or more (almost completely withered))
same,"herbicidal effect grade, H: barnyard grass",barnyard grass [20]; 320 g/ha,0 (Herbicidal rate of 5% or less (almost no effect))
same,"herbicidal effect grade, K: Italian ryegrass",Italian ryegrass [21]; 320 g/ha,4 (Herbicidal rate of 70% or more and less than 90%)
same,"herbicidal effect grade, N: redroot pigweed",redroot pigweed [22]; 320 g/ha,3 (Herbicidal rate of 40% or more and less than 70%)
same,"herbicidal effect grade, R: persian speedwell",persian speedwell [23]; 320 g/ha,3 (Herbicidal rate of 40% or more and less than 70%)
same,"herbicidal effect rating, M: velvetleaf",velvetleaf [24]; [29],0 (Herbicidal rate of 5% or less (almost no effect))
same,"herbicidal effect rating, G: green foxtail",green foxtail [25]; [29],0 (Herbicidal rate of 5% or less (almost no effect))
same,"herbicidal effect grade, O: lambsquarters",lambsquarters [26]; 320 g/ha,0 (Herbicidal rate of 5% or less (almost no effect))
same,"herbicidal effect rating, I: wild oat",wild oat [27]; [29],2 (Herbicidal rate of 20% or more and less than 40%)
